Earlier results as cited in US10538548B2, “Material mixture containing rubusoside or alpha glycosylrubusoside, for enhancing sweet taste” (SYMRISE AG, priority 2014, dated 2020).

Details: pure rubusoside

Structure (SMILES): C=C1C[C@@]23CC[C@H]4[C@@](C)(CCC[C@@]4(C)C(=O)O[C@@H]4O[C@H](CO)[C@@H](O)[C@H](O)[C@H]4O)[C@@H]2CC[C@]1(O[C@@H]1O[C@H](CO)[C@@H](O)[C@H](O)[C@H]1O)C3 [rubusoside, Rubusoside]
- sweetening power relative to sugar: 200 times
